Assay results as given in the supplement of paper PMC5908809.

Experiments:
[1] = system: normal NK cells expanded with K562-aAPC; test: percent inhibition of viability; higher = more inhibition; conditions: 72 h, IL-2 2.5 ng/mL
Experimental: (§1)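 Drug sensitivity and resistance testing on K562-aAPC-expanded normal NK cells: 5 concentrations (10-fold steps over a 10,000-fold range), 72 h at 37 °C, viability by CellTiter-Glo normalised to DMSO and benzethonium chloride controls; DSS from the fitted curve.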

DERL-7 (IL-2 2.5 ng/mL) [2] = test: as above; conditions: 72 h
IMC-1 (IL-2 20 ng/mL) [3] = test: as above; conditions: 72 h
KAI3 (IL-2 2.5 ng/mL) [4] = test: as above; conditions: 72 h
KHYG-1 (IL-2 2.5 ng/mL) [5] = test: as above; conditions: 72 h
NK-92 (IL-2 2.5 ng/mL) [6] = test: as above; conditions: 72 h
NK-YS (IL-2 2.5 ng/mL) [7] = test: as above; conditions: 72 h
NKL (IL-2 2.5 ng/mL) [8] = test: as above; conditions: 72 h
SNK-6 (IL-2 2.5 ng/mL) [9] = test: as above; conditions: 72 h
YT (IL-2 2.5 ng/mL) [10] = test: as above; conditions: 72 h
[11] = system: normal primary NK cells, pool 1 (3 donors) (IL-2 2.5 ng/mL); test: as above; conditions: 72 h
[12] = system: normal primary NK cells, pool 1 (3 donors), resting (IL-2 0 ng/mL); test: as above; conditions: 72 h
[13] = system: normal primary NK cells, pool 2 (3 donors) (IL-2 2.5 ng/mL); test: as above; conditions: 72 h
[14] = system: normal primary NK cells, pool 3 (3 donors) (IL-2 2.5 ng/mL); test: as above; conditions: 72 h
[15] = system: normal NK cells expanded with K562-aAPC; test: drug sensitivity score (DSS) (DSS units); higher = more sensitive; extreme values may be limits of the assay; conditions: 72 h; IL-2 2.5 ng/mL
Experimental: as §1

DERL-7 (IL-2 2.5 ng/mL) [16] = test: as above; conditions: 72 h
IMC-1 (IL-2 20 ng/mL) [17] = test: as above; conditions: 72 h
KAI3 (IL-2 2.5 ng/mL) [18] = test: as above; conditions: 72 h
KHYG-1 (IL-2 2.5 ng/mL) [19] = test: as above; conditions: 72 h
NK-92 (IL-2 2.5 ng/mL) [20] = test: as above; conditions: 72 h
NK-YS (IL-2 2.5 ng/mL) [21] = test: as above; conditions: 72 h
NKL (IL-2 2.5 ng/mL) [22] = test: as above; conditions: 72 h
SNK-6 (IL-2 2.5 ng/mL) [23] = test: as above; conditions: 72 h
YT (IL-2 2.5 ng/mL) [24] = test: as above; conditions: 72 h
[25] = system: normal primary NK cells, pool 1 (3 donors) (IL-2 2.5 ng/mL); test: as above; conditions: 72 h
[26] = system: normal primary NK cells, pool 1 (3 donors), resting (IL-2 0 ng/mL); test: as above; conditions: 72 h
[27] = system: normal primary NK cells, pool 2 (3 donors) (IL-2 2.5 ng/mL); test: as above; conditions: 72 h
[28] = system: normal primary NK cells, pool 3 (3 donors) (IL-2 2.5 ng/mL); test: as above; conditions: 72 h

CCOc1cc2ncc(C#N)c(Nc3ccc(OCc4ccccn4)c(Cl)c3)c2cc1NC(=O)/C=C/CN(C)C [Neratinib] (max concentration tested 1000 nM)
percent inhibition of viability [%]
Conditions | 0.1 nM | 1 nM | 10 nM | 100 nM | 1000 nM
DERL-7 (IL-2 2.5 ng/mL) [2] | -7.68 | 3.12 | 6.29 | 8.45 | 68.9
IMC-1 (IL-2 20 ng/mL) [3] | -2.69 | -1.05 | 1.8 | 4.28 | 1.07
KAI3 (IL-2 2.5 ng/mL) [4] | -4.25 | -5.47 | -6.36 | 0.65 | 48.1
KHYG-1 (IL-2 2.5 ng/mL) [5] | 4.6 | -0.87 | 25.1 | 2.37 | 22
NK-92 (IL-2 2.5 ng/mL) [6] | 3.19 | -13.2 | 7.23 | 7.67 | 55.4
NK-YS (IL-2 2.5 ng/mL) [7] | -2.05 | -4.96 | -1.85 | -5.03 | 15.2
NKL (IL-2 2.5 ng/mL) [8] | -1.48 | 12.9 | 8.45 | 12.5 | 40.4
SNK-6 (IL-2 2.5 ng/mL) [9] | 11 | 16.1 | 38.2 | 6.35 | 35.7
YT (IL-2 2.5 ng/mL) [10] | 1.33 | 4.12 | 5.46 | 1.01 | 10.2
[1] | -2.53 | 0.83 | -1.65 | 8.19 | 50
[11] | -6.45 | -7.28 | -6.63 | -9.14 | 36.2
[12] | -2.47 | -22.5 | -7.51 | -6.96 | 70.1
[13] | -8.13 | -2.28 | 2.22 | -1.98 | 33.3
[14] | -13.9 | -5.37 | -1.66 | -10.9 | 18.9

Conditions | drug sensitivity score
DERL-7 (IL-2 2.5 ng/mL) [16] | 5.21
IMC-1 (IL-2 20 ng/mL) [17] | 0
KAI3 (IL-2 2.5 ng/mL) [18] | 2.59
KHYG-1 (IL-2 2.5 ng/mL) [19] | 1.72
NK-92 (IL-2 2.5 ng/mL) [20] | 4.28
NK-YS (IL-2 2.5 ng/mL) [21] | 0.13
NKL (IL-2 2.5 ng/mL) [22] | 3.24
SNK-6 (IL-2 2.5 ng/mL) [23] | 0
YT (IL-2 2.5 ng/mL) [24] | 0
[15] | 4.02
[25] | 1.29
[26] | 3.36
[27] | 1.38
[28] | 0.26

COC(=O)c1ccc2c(c1)NC(=O)/C2=C(\Nc1ccc(N(C)C(=O)CN2CCN(C)CC2)cc1)c1ccccc1 [Nintedanib] (max concentration tested 10000 nM)
percent inhibition of viability [%]
Conditions | 1 nM | 10 nM | 100 nM | 1000 nM | 10000 nM
DERL-7 (IL-2 2.5 ng/mL) [2] | -8.99 | 0.01 | 2.16 | 38.1 | 100
IMC-1 (IL-2 20 ng/mL) [3] | -8.95 | -2.57 | -11.3 | -22.3 | 100
KAI3 (IL-2 2.5 ng/mL) [4] | -8.46 | -2.04 | 1.37 | 16.4 | 93.4
KHYG-1 (IL-2 2.5 ng/mL) [5] | -5.39 | -3.23 | -3.31 | 20.3 | 99.6
NK-92 (IL-2 2.5 ng/mL) [6] | -4.93 | 2.39 | -1.05 | 45.4 | 99.4
NK-YS (IL-2 2.5 ng/mL) [7] | -4.51 | -2.23 | -3.24 | 20.9 | 99.6
NKL (IL-2 2.5 ng/mL) [8] | -7.94 | -17.2 | -2.91 | 56.5 | 100
SNK-6 (IL-2 2.5 ng/mL) [9] | 16.6 | 7.57 | -2.75 | -31.8 | 83.2
YT (IL-2 2.5 ng/mL) [10] | -2.16 | -1.03 | -3.64 | 7.19 | 99.3
[1] | -0.08 | -2.82 | 8.47 | 31 | 100
[11] | -7.78 | -11 | -5.14 | 38.2 | 98.9
[12] | -8.23 | -15.9 | -15.4 | 47 | 94.9
[13] | -15.7 | -1.56 | -14 | 23.9 | 99.2
[14] | -18.1 | -18.2 | -5.82 | 5.55 | 99.6

Conditions | drug sensitivity score
DERL-7 (IL-2 2.5 ng/mL) [16] | 10.7
IMC-1 (IL-2 20 ng/mL) [17] | 4.45
KAI3 (IL-2 2.5 ng/mL) [18] | 7.87
KHYG-1 (IL-2 2.5 ng/mL) [19] | 8.76
NK-92 (IL-2 2.5 ng/mL) [20] | 11.3
NK-YS (IL-2 2.5 ng/mL) [21] | 8.84
NKL (IL-2 2.5 ng/mL) [22] | 12.3
SNK-6 (IL-2 2.5 ng/mL) [23] | 3.37
YT (IL-2 2.5 ng/mL) [24] | 6.61
[15] | 9.6
[25] | 10.6
[26] | 11.1
[27] | 9.18
[28] | 6.33

Cc1sc2c(c1C)C(c1ccc(Cl)cc1)=N[C@@H](CC(=O)Nc1ccc(O)cc1)c1nnc(C)n1-2 [OTX015] (max concentration tested 10000 nM)
percent inhibition of viability [%]
Conditions | 1 nM | 10 nM | 100 nM | 1000 nM | 10000 nM
DERL-7 (IL-2 2.5 ng/mL) [2] | 1.92 | 24 | 62 | 95.8 | 100
IMC-1 (IL-2 20 ng/mL) [3] | -7.07 | -8.73 | 1.26 | 73.2 | 97.4
KAI3 (IL-2 2.5 ng/mL) [4] | 3.12 | -12.4 | 6.28 | 43.9 | 56.6
KHYG-1 (IL-2 2.5 ng/mL) [5] | -1.24 | -0.67 | 38.7 | 91 | 106
NK-92 (IL-2 2.5 ng/mL) [6] | -10.2 | -31 | -32.9 | 22.6 | 36.9
NK-YS (IL-2 2.5 ng/mL) [7] | -0.13 | 1.91 | 28.4 | 62.4 | 81.9
NKL (IL-2 2.5 ng/mL) [8] | 6.07 | 1.36 | 45.3 | 69.8 | 73.4
SNK-6 (IL-2 2.5 ng/mL) [9] | 15.4 | 3.9 | 54.7 | 66.5 | 49.5
YT (IL-2 2.5 ng/mL) [10] | -1.39 | -5.05 | 12.7 | 50.1 | 56.8
[1] | -2.53 | -1.01 | 4.29 | 35.6 | 59.9
[11] | -1.64 | 12.5 | 32.6 | 59.5 | 80.1
[12] | -3.45 | 11.8 | 18.6 | 34.9 | 49.6
[13] | -6.93 | 6.42 | 15.3 | 54.1 | 76.5
[14] | -1.79 | 8.04 | 9.85 | 28.3 | 57.8

Conditions | drug sensitivity score
DERL-7 (IL-2 2.5 ng/mL) [16] | 26.7
IMC-1 (IL-2 20 ng/mL) [17] | 13.8
KAI3 (IL-2 2.5 ng/mL) [18] | 8.88
KHYG-1 (IL-2 2.5 ng/mL) [19] | 21.6
NK-92 (IL-2 2.5 ng/mL) [20] | 4.42
NK-YS (IL-2 2.5 ng/mL) [21] | 15.2
NKL (IL-2 2.5 ng/mL) [22] | 18.9
SNK-6 (IL-2 2.5 ng/mL) [23] | 19.3
YT (IL-2 2.5 ng/mL) [24] | 10.8
[15] | 7.54
[25] | 15.7
[26] | 8.82
[27] | 12.1
[28] | 6.65
